Values of other authors, collected in US7563779B2, “L-ergothioneine, milk thistle, and S-adenosylmethionine for the prevention, treatment and repair of liver damage” (Nutramax Laboratories, priority 1998, dated 2009).

How the values were obtained:
[1] = test system: lipid peroxide formation in mouse liver homogenate; conditions: FIG. 5
[2] = test system: lipid peroxidation in liver tissue; conditions: exogenous L-ergothioneine, liver tissue of rats
liver lipid accumulation = conditions: rats chronically intoxicated with ethanol
[3] = test system: liver nodules, pre-neoplastic lesions and hepatocellular carcinomas; conditions: administration of SAMe

Compound	LPO formation [1]	decomposition of existing LPO [1]	lipid peroxidation by toxic compounds [2]	lipid accumulation (liver lipid accumulation)	amount of early reversible nodules [3]	development of late pre-neoplastic lesions and hepatocellular carcinomas [3]
C[N+](C)(C)[C@@H](Cc1c[nH]c(=S)[nH]1)C(=O)[O-] [L-ergothioneine]	inhibited LPO formation	enhanced the decomposition of existing LPO	prevent lipid peroxidation	–	–	–
C[S+](CC[C@H](N)C(=O)O)C[C@H]1O[C@@H](n2cnc3c(N)ncnc32)[C@H](O)[C@@H]1O (stereo partly drawn) [SAMe, S-adenosylmethionine]	–	–	–	decrease lipid accumulation	fall in the amount of early reversible nodules	prevention of the development of late pre-neoplastic lesions and hepatocellular carcinomas
